Earlier results as cited in patent US8648060B2, “Use of 3-alpha-androstanediol in combination with a 5-HT1a agonist, in the treatment of sexual dysfunction” (Emotional Brain B.V., priority 2006, dated 2014).

Settings: serum concentration; capsule

## CCCc1nn(C)c2c(=O)[nH]c(-c3cc(S(=O)(=O)N4CCN(C)CC4)ccc3OCC)nc12.O=C(O)CC(O)(CC(=O)O)C(=O)O [sildenafil, 1-[[3-(6,7-dihydro-1-methyl-7-oxo-3-propyl-1Hpyrazolo[4,3-d]pyrimidin-5-yl)-4-ethoxyphenyl]sulfonyl]-4-methylpiperazine citrate]
  Tmax of sildenafil: 0.5 to 2 h
  T½: 3.5 h
